Patent EP0080305A1, “Antiviral 2'-deoxyuridines, their preparation and use” (BEECHAM GROUP PLC, priority 1981, dated 1983)
Counter-ions that a name gives are not always drawn. Like-named read-outs stand apart in the source and are kept apart here.

Tests used:
[1] = tested on: Herpes simplex type 1 virus (HFEM strain); experiment: Plaque reduction test in Vero cells infected with Herpes simplex type 1 virus; format: cell-based
Protocol: (§1) Vero (African Green Monkey Kidney) cells were grown to confluence in 6 well multidishes, each well being 3.5 cm in diameter. The cells were incubated with Herpes simplex type 1 virus (HFEM strain) and overlaid with 0.5 mL of 0.9% agarose (w/v) in maintenance medium containing the test compound at a range of concentrations from 3 µg/mL in half-log dilution steps. The virus infected cultures were then incubated at 37 °C for 6 days before fixing in 4% formaldehyde solution and staining with carbolfuchsin. The dishes were then examined to find what concentration of test compound causing a 50% reduction in the number of virus plaques formed (PDD50 value) and the minimum concentration of test compound which killed the cell monolayer, leaving a clear zone devoid of cells and virus plaques (MTD).

[2] = Minimum concentration killing the Vero cell monolayer, read in the plaque reduction test; format: cell-based, African Green Monkey; conditions: african green monkey; minimum concentration which killed the cell monolayer; virus-infected Vero cells, 6 days at 37°C; read-out: MTD
Protocol: as §1

[3] = Human alphaherpesvirus 1, 144 h, concentration causing a 50% reduction in the number of virus plaques, 6 days at 37°C, read-out: PDD50 (the source's name)
[4] = Human alphaherpesvirus 1, 144 h, same PDD50 values given in µM, 6 days at 37°C, read-out: PDD50 (the source's name)
[5] = Human alphaherpesvirus 1, Vero, 144 h, read-out: PDD50, concentration causing a 50% reduction in the number of virus plaques, 6 days at 37°C
[6] = Human alphaherpesvirus 1, Vero, 144 h, read-out: PDD50, same PDD50 values given in µM, 6 days at 37°C

Q: What does the source list for NC(Cc1ccc(F)cc1)C(=O)OC[C@H]1O[C@@H](n2cc(/C=C/Br)c(=O)[nH]c2=O)C[C@@H]1OC(=O)C(N)Cc1ccc(F)cc1 (mixture of isomers) [Example 15, E-5-(2-Bromovinyl)-3',5'-di-(p-fluoro-DL-phenylalanyl)-2'-deoxyuridine bis trifluoroacetate]?
A: IC50 [1, 3]: 0.8 µg/mL; IC50 [1, 4]: 0.9 µM; MCC at 144 h [2]: > 100 µg/mL

Q: Which results are given for CC(C)(C)OC(=O)N[C@@H](Cc1ccccc1)C(=O)OC[C@H]1O[C@@H](n2cc(/C=C/Br)c(=O)[nH]c2=O)C[C@@H]1OC(=O)[C@H](Cc1ccccc1)NC(=O)OC(C)(C)C [Example 1, E-5-(2-Bromovinyl)-3',5'-di-O-(tertbutoxycarbonylphenylalanyl)-2'-deoxyuridine]?
A: IC50 [1, 3]: 1.1 µg/mL; IC50 [1, 4]: 1.33 µM; MCC at 144 h [2]: > 100 µg/mL

Q: Which IC50 [1, 3] does the source give for CC(C)(C)OC(=O)N[C@@H](Cc1ccccc1)C(=O)O[C@H]1C[C@H](n2cc(/C=C/Br)c(=O)[nH]c2=O)O[C@@H]1CO [Example 2, E-5-(2-bromovinyl)-3'-O-(tertbutoxycarbonylphenylalanyl)-2'-deoxyuridine] here?
A: 0.16 µg/mL

Q: What about the IC50 [1, 4] of the same compound?
A: 0.28 µM

Q: What about the MCC at 144 h [2] of the same compound?
A: > 100 µg/mL

Q: Which IC50 [1, 3] does the source give for CC(C)(C)OC(=O)N[C@@H](Cc1ccccc1)C(=O)OC[C@H]1O[C@@H](n2cc(/C=C/Br)c(=O)[nH]c2=O)C[C@@H]1O [Example 3, E-5-(2-Bromovinyl)-5'-O-(tertbutoxycarbonylphenylalanyl)-2'-deoxyuridine] here?
A: 0.25 µg/mL

Q: And the IC50 [1, 4]?
A: 0.43 µM

Q: And the MCC at 144 h [2]?
A: > 100 µg/mL

Q: Which results are given for CC(C)(C)OC(=O)NCC(=O)OC[C@H]1O[C@@H](n2cc(/C=C/Br)c(=O)[nH]c2=O)C[C@@H]1OC(=O)CNC(=O)OC(C)(C)C [Example 4, E-5-(2-Bromovinyl)-3',5'-di-O-(tert.butoxycarbonylglycyl)-2'-deoxyurdine]?
A: IC50 [1, 3]: 1.95 µg/mL; IC50 [1, 4]: 3.01 µM; MCC at 144 h [2]: > 100 µg/mL

Q: With CC(C)(C)OC(=O)NCC(=O)O[C@H]1C[C@H](n2cc(/C=C/Br)c(=O)[nH]c2=O)O[C@@H]1CO [Example 5, E-5-(2-Bromovinyl)-3'-O-(tert.butoxycarbonylglycyl)-2'-deoxyuridine] as the compound, how does the IC50 [1, 3] read?
A: 0.48 µg/mL

Q: And the IC50 [1, 4]?
A: 0.98 µM

Q: What about the MCC at 144 h [2] of the same compound?
A: > 100 µg/mL

Q: Which results are given for CC(C)(C)OC(=O)NCC(=O)OC[C@H]1O[C@@H](n2cc(/C=C/Br)c(=O)[nH]c2=O)C[C@@H]1O [Example 6, E-5-(2-Bromovinyl)-5'-O-(tert.-butoxycarbonylglycyl)-2'-deoxyuridine]?
A: IC50 [1, 3]: 0.54 µg/mL; IC50 [1, 4]: 1.1 µM; MCC at 144 h [2]: > 100 µg/mL

Q: For NC(Cc1ccccc1)C(=O)O[C@H]1C[C@H](n2cc(/C=C/Br)c(=O)[nH]c2=O)O[C@@H]1CO (some centres unmarked) [Example 8, E-5-(2-Bromovinyl)-3'-O-phenylalanyl-2'-deoxyuridine trifluoroacetate], which IC50 [1, 5] is on record?
A: 0.45 µg/mL

Q: What about the IC50 [1, 6] of the same compound?
A: 0.76 µM

Q: What about the MCC at 144 h [2] of the same compound?
A: > 100 µg/mL

Q: For NC(Cc1ccccc1)C(=O)OC[C@H]1O[C@@H](n2cc(/C=C/Br)c(=O)[nH]c2=O)C[C@@H]1OC(=O)C(N)Cc1ccccc1 (some centres unmarked) [Example 10], which IC50 [1, 5] is on record?
A: 0.19 µg/mL

Q: What about the IC50 [1, 6] of the same compound?
A: 0.24 µM

Q: And the MCC at 144 h [2]?
A: > 100 µg/mL

Q: With CC(C)C[C@H](NC(=O)OC(C)(C)C)C(=O)OC[C@H]1O[C@@H](n2cc(/C=C/Br)c(=O)[nH]c2=O)C[C@@H]1OC(=O)[C@H](CC(C)C)NC(=O)OC(C)(C)C [Example 12, E-5-(2-Bromovinyl)-3',5'-di(t-butoxycarbonyl-L-leucyl)-2^1-deoxyuridine] as the compound, how does the IC50 [1, 3] read?
A: 0.86 µg/mL

Q: What about the IC50 [1, 4] of the same compound?
A: 1.13 µM

Q: What about the MCC at 144 h [2] of the same compound?
A: 100 µg/mL

Q: For NCC(=O)OC[C@H]1O[C@@H](n2cc(/C=C/Br)c(=O)[nH]c2=O)C[C@@H]1O [Example 13, E-5-(2-Bromovinyl)-5'-glycyl-2'-deoxyuridine trifluoroacetate], which IC50 [1, 5] is on record?
A: 0.94 µg/mL

Q: And the IC50 [1, 6]?
A: 1.87 µM

Q: And the MCC at 144 h [2]?
A: > 100 µg/mL

Q: What does the source list for NCC(=O)OC[C@H]1O[C@@H](n2cc(/C=C/Br)c(=O)[nH]c2=O)C[C@@H]1OC(=O)CN [Example 14, E-5-(2-Bromovinyl)-3',5'-di-glycyl-2'-deoxyuridine bis trifluoroacetate]?
A: IC50 [1, 5]: 0.36 µg/mL; IC50 [1, 6]: 0.53 µM; MCC at 144 h [2]: > 100 µg/mL

Q: For CC(C)C[C@H](N)C(=O)OC[C@H]1O[C@@H](n2cc(/C=C/Br)c(=O)[nH]c2=O)C[C@@H]1OC(=O)[C@@H](N)CC(C)C [Example 16, E-5-(2-Bromovinyl)-3',5'-di-L-leucyl-2'-deoxyuridine trifluoroacetate], which PDD50 ([1]; concentration causing a 50% reduction in the number of virus plaques, 6 days at 37°C, trifluoroacetate) is on record?
A: 0.02 µg/mL

Q: What about the IC50 ([1]; read-out: PDD50, same PDD50 values given in µM, 6 days at 37°C, trifluoroacetate) of the same compound?
A: 0.025 µM

Q: And the MCC at 144 h [2]?
A: > 100 µg/mL

Q: Which results are given for CC(C)C[C@@H](NC(=O)OC(C)(C)C)C(=O)OC[C@H]1O[C@@H](n2cc(/C=C/Br)c(=O)[nH]c2=O)C[C@@H]1OC(=O)[C@@H](CC(C)C)NC(=O)OC(C)(C)C [Example 19, E-5-(2-Bromovinyl)-3',5'-di-(t-butoxy-carbonyl-D-leucyl)-2'-deoxyuridine]?
A: IC50 [1, 3]: > 100 µg/mL; MCC at 144 h [2]: > 100 µg/mL

Q: With CC(C)(C)OC(=O)N[C@H](Cc1ccccc1)C(=O)OC[C@H]1O[C@@H](n2cc(/C=C/Br)c(=O)[nH]c2=O)C[C@@H]1OC(=O)[C@@H](Cc1ccccc1)NC(=O)OC(C)(C)C [Example 20, E-5-(2-Bromovinyl)-3',5'-di-(t-butoxy-carbonyl-D-phenylalanyl)-2'-deoxyuridine] as the compound, how does the IC50 [1, 3] read?
A: > 100 µg/mL

Q: What about the MCC at 144 h [2] of the same compound?
A: > 100 µg/mL

Q: For CSCC[C@H](NC(=O)OC(C)(C)C)C(=O)OC[C@H]1O[C@@H](n2cc(/C=C/Br)c(=O)[nH]c2=O)C[C@@H]1OC(=O)[C@H](CCSC)NC(=O)OC(C)(C)C [Example 21, E-5-(2-Bromovinyl)-3',5'-di-(t-butoxy-carbonyl-L-methionyl)-2'-deoxyuridine], which IC50 [1, 3] is on record?
A: 1.71 µg/mL

Q: What about the IC50 [1, 4] of the same compound?
A: 2.15 µM

Q: And the MCC at 144 h [2]?
A: > 100 µg/mL

Q: For CC(C)[C@H](NC(=O)OC(C)(C)C)C(=O)OC[C@H]1O[C@@H](n2cc(/C=C/Br)c(=O)[nH]c2=O)C[C@@H]1OC(=O)[C@@H](NC(=O)OC(C)(C)C)C(C)C [Example 22, E-5-(2-Bromovinyl)-3',5'-di-(t-butoxy-carbonyl-L-valyl)-2'-deoxyuridine], which IC50 [1, 3] is on record?
A: > 100 µg/mL

Q: And the MCC at 144 h [2]?
A: > 100 µg/mL

Q: Which results are given for CC[C@H](C)[C@H](NC(=O)OC(C)(C)C)C(=O)OC[C@H]1O[C@@H](n2cc(/C=C/Br)c(=O)[nH]c2=O)C[C@@H]1OC(=O)[C@@H](NC(=O)OC(C)(C)C)[C@@H](C)CC [Example 23, E-5-(2-Bromovinyl)-3',5'-di-(t-butoxy-carbonyl-L-isoleucyl)-2'-deoxyuridine]?
A: IC50 [1, 3]: > 100 µg/mL; MCC at 144 h [2]: > 100 µg/mL

Q: With C[C@H](NC(=O)OC(C)(C)C)C(=O)OC[C@H]1O[C@@H](n2cc(/C=C/Br)c(=O)[nH]c2=O)C[C@@H]1OC(=O)[C@H](C)NC(=O)OC(C)(C)C [Example 24, E-5-(2-Bromovinyl)-3',5'-di-(t-butoxy-carbonyl-L-alanyl)-2'-deoxyuridine] as the compound, how does the IC50 [1, 3] read?
A: 0.62 µg/mL

Q: What about the IC50 [1, 4] of the same compound?
A: 0.92 µM

Q: What about the MCC at 144 h [2] of the same compound?
A: > 100 µg/mL

Q: With CC(C)(C)OC(=O)N[C@@H](CCC(N)=O)C(=O)OC[C@H]1O[C@@H](n2cc(/C=C/Br)c(=O)[nH]c2=O)C[C@@H]1OC(=O)[C@H](CCC(N)=O)NC(=O)OC(C)(C)C [Example 25, E-5-(2-Bromovinyl)-3',5'-di-(t-butoxycarbonyl-L-glutaminyl)-2'-deoxyuridine] as the compound, how does the IC50 [1, 3] read?
A: 0.47 µg/mL

Q: What about the IC50 [1, 4] of the same compound?
A: 0.6 µM

Q: And the MCC at 144 h [2]?
A: > 100 µg/mL

Q: For CC(C)(C)OC(=O)NCCCC[C@H](NC(=O)OC(C)(C)C)C(=O)OC[C@H]1O[C@@H](n2cc(/C=C/Br)c(=O)[nH]c2=O)C[C@@H]1OC(=O)[C@H](CCCCNC(=O)OC(C)(C)C)NC(=O)OC(C)(C)C [Example 26, E-5-(2-Bromovinyl)-3',5'-bis-(Nβ,Nε-di-t-butoxycarbonyl-L-lysyl)-2'-deoxyuridine], which IC50 [1, 3] is on record?
A: 90 µg/mL

Q: What about the IC50 [1, 4] of the same compound?
A: 91 µM

Q: And the MCC at 144 h [2]?
A: > 100 µg/mL
